One data set has as its target rat P2X7R (Rattus norvegicus (Rat), UniProt Q64663). The experiment in a line: rat P2X7 Ca2+ influx, Screen Quest Fluo-8 No Wash Calcium Assay Kit (FLIPR TETRA). The following applies: read-out: rP2X7 (IC50; nM). Format: cell-based. On the procedure: Ca^2+ influx was measured in HEK-293 cells stably transfected with the receptor using Screen Quest™ Fluo-8 No Wash Calcium Assay Kit (AAt Bioquest®). Briefly, once inside the cells, the lipophilic blocking groups of Fluo-8 are cleaved by non-specific cell esterases, resulting in a negatively-charged fluorescent-dye that stays inside cells. Its fluorescence increases upon binding to calcium. When HEK-293/P2X7 cells were stimulated with BzATP, Ca^2+ entered the cells and the fluorescence of Fluo-8 NW increaseed.
To routinely test the compounds, HEK-293 cells stably transfected with rat P2X7R were seeded overnight in growth medium at 10000, 15000 or 20000 cells/well in 384-well plate, according to the level of response after thawing. 24 hours later, the medium was removed and the cells were pre-loaded at RT for 1 hour with 20 μL/w of Fluo-8 NW prepared in Tyrode 0.3 mM Ca^2+/Mg^2+-free.
Compounds were tested at […] according to the following method: • first injection at […] of 10 μL of 3× test compound (in Tyrode's buffer 0.3 mM Ca^2+/Mg^2+-free+DMSO 0.5% final concentration) • 5′ incubation • second injection at […] of 15 µL of 3× BzATP at ˜ECK) (in Tyrode's buffer 0.3 mM Ca^2+/Mg^2+-free+BSA 0.0003% final concentration) • Fluorescence recording for 3′
Between one plate and the following, tips were extensively washed with water, then with 100% DMSO and finally with water to avoid carry-over inside the tips.
The effect of the test compounds was measured as percent inhibition vs a reference antagonist and IC50 values were calculated accordingly.

In another data set the target is human P2X7 channel (Homo sapiens (Human), UniProt Q99572). Briefly: human P2X7 channel assay by automated patch-clamp (QPatch16X), BzATP-evoked current. The following applies: HEK-293 cells expressing P2X7, whole-cell voltage clamp, 100 microM BzATP, holding -80 mV; read-out: hP2X7 (IC50; nM). Format: cell-based. The method, then: In order to directly monitor the block of P2X7 channel, an electrophysiological assay was developed and implemented on the QPatch16X automated electrophysiology instrument.
HEK-293 cells expressing the P2X7 channels were cultured in modified EMEM.
72 hours before experiment, 5 million cells were seeded onto T225 flasks. Just before the experiment cells were washed twice, detached from the flask with trypsin-EDTA, re-suspended in the suspension solution and placed on the QPatch 16x.
The compounds (20 mM in a 100% DMSO) stored at −20° C. were prepared the day of the experiment (a first dilution 1:20 in 100% DMSO to prepare a 1 mM stock solution, then a 1 microM solution in external solution+a serial dilution 1:10).
The standard whole-cell voltage clamp experiments were performed at room temperature. For these experiments the multihole technology was used and the data were sampled at 2 KHz.
After establishment of the seal and the passage in the whole cell configuration, the cells were held at −80 mV. The P2XR7 current was evoked by applying 100 microM of BzATP alone (4 times) and then in the presence increasing concentrations of the compound under investigation (1, 10, 100 and 1000 nM).
The pre-incubation periods 5 to 8 contain increasing concentrations of the compound of interest (1, 10, 100 and 1000 nM), as illustrated in FIGURE.
The maximal inward current evoked by BzATP in absence or presence of increasing concentrations of the compounds under investigation was measured and normalized.
Y: normalized response, 100% down to 0%, decreasing as X increases.
LogIC50: same log units as X
HillSlope: slope factor or HS, unitless
For orientation: Patch clamp records ionic current or voltage across a cell membrane.

A short description of data set [1]: metabolic stability using Human liver Microsomes. Details: unit not given here. The following applies: 1 μM test compound, 1 mg/mL protein, pH 7.4, 0-60 min. Format: in vitro ADME. The method, then:
In vitro evaluation of test compounds for metabolic stability using Human liver
Test System Human (Mouse) Liver Microsomes
Test compound concentration: 1μM
Time Points: 0, 5, 10, 30 and 60 minutes
Final Protein concentration: 1 mg/mL
Number of Replicates: Two
Potassium Phosphate Buffer pH 7.4 100 mM
End Point: % Remaining of Test compound, Half life, Clint
Preparation and Dilution of Test Compound:
10 mM stock solution of test compound were prepared in DMSO and dilute with water: acetonitrile (1:1) to a concentration of 1 mM. Working concentration of 100 μM were prepared by further dilution with water: acetonitrile (1: 1).
Preparation of Potassium Phosphate buffer pH 7.4:
100 mL of Milli Q water will be added to K2HPO4 (1.398 g) and KH2PO4 (0.27 g) to get final pH 7.4.
Preincubation mixture: 2.5 μL Test Cpd.+75 μL Liver microsomes@3.33 mg/mL+85 μL of 100 mM potassium phosphate buffer (Preincubate for 10 min @37° C.)
60 min w/o cofactor: 32.5 μL of Preincubation mixture+17.5 μL of 100 mM potassium phosphate buffer (Incubate for 60 min@37° C.)
0 min sample: 16.25 μL of Preincubation mixture+200 μL of acetonitrile containing internal standard+8.75 μL of cofactor Incubation mixture 62 μL of cofactor (2.5 mM)+Remaining incubation mixture (Incubated for 60 min@37° C.).
Sample preparation: 25 μL incubation mixture+200 μL of acetonitrile containing internal standard+Vortex 5 min@1200 rpm+Centrifuge 10 min@4000 rpm. Dilute supernatant 2 fold with water and injected on LC-MS/MS.
Bioanalysis: LC-MS/MS method LC generic gradient conditions will be used and the details will be provided in the report.
(In general: Liver microsomes are vesicles of endoplasmic reticulum, rich in cytochrome P450 enzymes.)

[2] abbreviates: Table 4, HEK-293 cells stably transfected with rat P2X7R, BzATP stimulation.
[3] abbreviates: Table 5, comparison with Compound 59 of WO2015118019.

By IC50 is commonly meant the midpoint of a concentration-inhibition curve.

Read-outs that look alike come from different tables or passages of the source.

human P2X7 channel, sequence (Q99572 whole entry): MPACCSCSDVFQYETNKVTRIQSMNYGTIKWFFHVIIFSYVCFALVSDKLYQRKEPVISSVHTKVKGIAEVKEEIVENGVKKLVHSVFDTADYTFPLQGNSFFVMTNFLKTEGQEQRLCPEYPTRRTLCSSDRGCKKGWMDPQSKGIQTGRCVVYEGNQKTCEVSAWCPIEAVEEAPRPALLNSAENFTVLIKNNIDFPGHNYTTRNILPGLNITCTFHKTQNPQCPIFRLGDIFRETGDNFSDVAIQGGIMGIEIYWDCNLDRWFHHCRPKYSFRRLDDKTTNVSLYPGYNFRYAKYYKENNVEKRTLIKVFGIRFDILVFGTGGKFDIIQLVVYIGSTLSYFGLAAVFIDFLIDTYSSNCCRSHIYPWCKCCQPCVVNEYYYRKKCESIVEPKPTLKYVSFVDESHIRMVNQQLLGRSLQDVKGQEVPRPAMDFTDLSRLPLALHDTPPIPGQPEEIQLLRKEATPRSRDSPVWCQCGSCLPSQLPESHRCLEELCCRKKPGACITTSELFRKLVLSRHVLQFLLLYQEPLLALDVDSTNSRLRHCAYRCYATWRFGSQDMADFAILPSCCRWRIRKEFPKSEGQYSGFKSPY
rat P2X7R, sequence (Q64663 whole entry): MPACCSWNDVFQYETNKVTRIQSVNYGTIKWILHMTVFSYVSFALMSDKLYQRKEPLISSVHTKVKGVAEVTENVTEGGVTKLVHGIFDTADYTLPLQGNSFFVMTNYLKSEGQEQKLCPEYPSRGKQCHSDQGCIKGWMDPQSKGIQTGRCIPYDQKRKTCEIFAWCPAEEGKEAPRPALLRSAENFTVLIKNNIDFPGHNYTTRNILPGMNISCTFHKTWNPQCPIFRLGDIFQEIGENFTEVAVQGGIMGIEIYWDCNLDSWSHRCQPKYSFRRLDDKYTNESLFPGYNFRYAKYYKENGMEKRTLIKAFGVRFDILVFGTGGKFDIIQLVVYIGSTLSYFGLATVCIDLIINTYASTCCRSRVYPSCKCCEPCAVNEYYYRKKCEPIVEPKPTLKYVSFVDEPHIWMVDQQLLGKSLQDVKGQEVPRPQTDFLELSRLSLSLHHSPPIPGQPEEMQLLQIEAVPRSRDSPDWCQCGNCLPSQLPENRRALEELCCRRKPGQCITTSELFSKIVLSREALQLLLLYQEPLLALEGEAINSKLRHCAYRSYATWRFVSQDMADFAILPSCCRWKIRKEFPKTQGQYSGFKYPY

Regarding `Cc1ncsc1C(CNC(=O)c1cccc2ncccc12)N1CCC(OCc2cccc(F)c2)CC1` (stereo not shown) [Compound 15, N-(2-{4-[(3-fluorophenyl)methoxy]piperidin-1-yl}-2-(4-methyl-1,3-thiazol-5-yl)ethyl)quinoline-5-carboxamide], the 50% inhibitory concentration (IC50) on rat P2X7R (setting [2]) worked out at 288 nM; at human P2X7 channel it was 11.6 nM.
On to `Cc1ncsc1C(CNC(=O)c1c(F)cccc1Cl)N1CCC(Oc2cc(F)cc(F)c2)CC1` (stereo not shown) [Compound 11, 2-chloro-N-{2-[4-(3,5-difluorophenoxy)piperidin-1-yl]-2-(4-methyl-1,3-thiazol-5-yl)ethyl}-6-fluorobenzamide], for which the IC50 was found to be 594 nM at rat P2X7R (setting [2]) and 30.6 nM at human P2X7 channel. Moreover, the “Human Liver Microsomal Clearance (CLi; μg/min/mg protein)” value (from here on “Human Liver Microsomal Clearance”) in data set [1] came to 59.41.
Regarding `Cc1ncsc1C(CNC(=O)c1cccc2ncccc12)N1CCC(OCc2ccc(F)cc2)CC1` (stereo not shown) [Compound 13, N-(2-{4-[(4-fluorophenyl)methoxy]piperidin-1-yl}-2-(4-methyl-1,3-thiazol-5-yl)ethyl)quinoline-5-carboxamide], the 50% inhibitory concentration (IC50) is 371 nM on rat P2X7R (setting [2]) and 42.1 nM at human P2X7 channel.
With `Cc1ncsc1C(CNC(=O)c1cccc2ncccc12)N1CCC(Oc2ccccc2F)CC1` (stereo not shown) [Compound 22, N-{2-[4-(2-fluorophenoxy)piperidin-1-yl]-2-(4-methyl-1,3-thiazol-5-yl)ethyl}quinoline-5-carboxamide], the IC50 at rat P2X7R (setting [2]) was 355 nM; at human P2X7 channel, 30.2 nM. The “Human Liver Microsomal Clearance” value in data set [1] was 93.44.
In the case of `Cc1ncsc1C(CNC(=O)c1cccc2ncccc12)N1CCC(OCc2cc(F)cc(F)c2)CC1` (stereo not shown) [Compound 17, N-(2-{4-[(3,5-difluorophenyl)methoxy]piperidin-1-yl}-2-(4-methyl-1,3-thiazol-5-yl)ethyl)quinoline-5-carboxamide], the concentration for half-maximal inhibition (IC50) on rat P2X7R (setting [2]) stood at 432 nM; on human P2X7 channel, 32.9 nM.
The like results for `Cc1ncsc1C(CNC(=O)c1c(F)cccc1Cl)N1CCC(Oc2ccc(F)cc2)CC1` (stereo not shown) [Compound 7, 2-chloro-6-fluoro-N-{2-[4-(4-fluorophenoxy)piperidin-1-yl]-2-(4-methyl-1,3-thiazol-5-yl)ethyl}benzamide] were, in that order, 709 nM and 51.5 nM.
On to `O=C(NCC(c1scnc1C(F)F)N1CCC(Oc2cccc(F)c2)CC1)c1c(F)cccc1Cl` (stereo not shown) [Compound 29, 2-chloro-N-{2-[4-(difluoromethyl)-1,3-thiazol-5-yl]-2-[4-(3-fluorophenoxy)piperidin-1-yl]ethyl}-6-fluorobenzamide], for which the half-inhibitory concentration (IC50) at rat P2X7R (setting [2]) came out at 441 nM; on human P2X7 channel, 28.9 nM.
Take `Cc1ncsc1C(CNC(=O)c1cccc2ncccc12)N1CCC(Oc2ccc(F)cc2)CC1` (stereo not shown) [Compound 19, N-{2-[4-(4-fluorophenoxy)piperidin-1-yl]-2-(4-methyl-1,3-thiazol-5-yl)ethyl}quinoline-5-carboxamide]: the concentration for half-maximal inhibition (IC50) came out at 582 nM on rat P2X7R (setting [2]) and 23.9 nM on human P2X7 channel. The “Human Liver Microsomal Clearance” value in data set [1] turned out to be 71.12.
In the case of `Cc1ncsc1C(CNC(=O)c1c(F)cccc1Cl)N1CCC(OCc2cc(F)cc(F)c2)CC1` (stereo not shown) [Compound 5, 2-chloro-N-(2-{4-[(3,5-difluorophenyl)methoxy]piperidin-1-yl}-2-(4-methyl-1,3-thiazol-5-yl)ethyl)-6-fluorobenzamide], the half-maximal inhibitory concentration (IC50) at rat P2X7R (setting [2]) is 506 nM; at human P2X7 channel it was 35.1 nM.
Consider `Cc1ncsc1C(CNC(=O)c1c(F)cccc1Cl)N1CCC(OCc2ccc(F)cc2)CC1` (stereo not shown) [Compound 1, 2-chloro-6-fluoro-N-(2-{4-[(4-fluorophenyl)methoxy]piperidin-1-yl)-2-(4-methyl-1,3-thiazol-5-yl}ethyl)benzamide], for which the half-maximal inhibitory concentration (IC50) on rat P2X7R (setting [2]) is 1040 nM; at human P2X7 channel, 45 nM.
In the case of `Cc1ncsc1C(CNC(=O)c1c(F)cccc1Cl)N1CCC(Oc2cccc(F)c2)CC1` (stereo not shown) [Compound 9, 2-chloro-6-fluoro-N-{2-[4-(3-fluorophenoxy)piperidin-1-yl]-2-(4-methyl-1,3-thiazol-5-yl)ethyl}benzamide], the IC50 amounted to 402 nM at rat P2X7R (setting [2]) and 23.6 nM at human P2X7 channel.
With `Cc1ncsc1C(CNC(=O)c1cccc2ncccc12)N1CCC(Oc2ccc(F)c(F)c2)CC1` (stereo not shown) [Compound 24, N-{2-[4-(3,4-difluorophenoxy)piperidin-1-yl]-2-(4-methyl-1,3-thiazol-5-yl)ethyl}quinoline-5-carboxamide], the concentration for half-maximal inhibition (IC50) on rat P2X7R (setting [2]) was determined as 201 nM; at rat P2X7R (setting [3]), 201 nM; on human P2X7 channel it was 57.9 nM.
Consider `O=C(NCC(c1scnc1C(F)F)N1CCC(OCc2ccc(F)c(F)c2)CC1)c1cccc2ncccc12` (stereo not shown) [Compound 33, N-{2-[4-(difluoromethyl)-1,3-thiazol-5-yl]-2-{4-[(3,4-difluorophenyl)methoxy]piperidin-1-yl}ethyl}quinoline-5-carboxamide], for which the values for the IC50 on rat P2X7R (setting [2]) and at human P2X7 channel were 182 nM and 56.2 nM, respectively.
`Cc1ncsc1C(CNC(=O)c1c(F)cccc1Cl)N1CCC(OCc2cccc(F)c2)CC1` (stereo not shown) [Compound 3, 2-chloro-6-fluoro-N-(2-{4-[(3-fluorophenyl)methoxy]piperidin-1-yl}-2-(4-methyl-1,3-thiazol-5-yl)ethyl)benzamide]: the IC50 at rat P2X7R (setting [2]) was found to be 373 nM; on human P2X7 channel, 5.95 nM.
`O=C(NCC(c1scnc1C(F)F)N1CCC(Oc2ccccc2F)CC1)c1cccc2ncccc12` (stereo not shown) [Compound 37, N-{2-[4-(difluoromethyl)-1,3-thiazol-5-yl]-2-[4-(2-fluorophenoxy)piperidin-1-yl]ethyl}quinoline-5-carboxamide]: the IC50 amounted to 133 nM at rat P2X7R (setting [2]), 133 nM on rat P2X7R (setting [3]) and 43.2 nM on human P2X7 channel.
As to `Cc1ncsc1C(CNC(=O)c1c(F)cccc1Cl)N1CCC(Oc2ccccc2F)CC1` (stereo not shown) [Compound 10, 2-chloro-6-fluoro-N-{2-[4-(2-fluorophenoxy)piperidin-1-yl]-2-(4-methyl-1,3-thiazol-5-yl)ethyl}benzamide], the 50% inhibitory concentration (IC50) was 583 nM at rat P2X7R (setting [2]) and 42.9 nM on human P2X7 channel.

(Values after US10669267B2, “Substituted N-[2-(4-phenoxypiperidin-1-yl)-2-(1,3-thiazol-5-yl)ethyl]benzamide and N-[2-(4-benzyloxypiperidin-1-yl)-2-(1,3-thiazol-5-yl)ethyl]benzamide derivatives P2X7 receptor antagonists” (Axxam S.P.A., priority 2016, dated 2020).)
